What was measured:
[1] = system: corn line D haploid callus; experiment: Chromosome doubling of haploid callus with colchicine; ploidy of regenerated plants by flow cytometry; format: cell-based; conditions: 3 days; for Diploid plants / Haploid plants / Tetraploid plants: 0.025% colchicine
Excerpt: When a sufficient amount of transgenic callus has grown (approximately 0.25 g), the haploid callus can be doubled to produce dihaploid callus. The callus can be transferred to a 100×20 mm petri plate that contains a structure for supporting callus in a liquid medium such as three filter papers or 2 pieces of 100% acrylic felt. Those of skill in the art are aware of the numerous modifications to liquid media for supporting cultured tissues. To the Petri dish can be added a suitable culture medium lacking selection agents but containing 0.025% colchicine or other chromosome doubling agents such as Oryzalin, pronamide, or APM (amiprophos-methyl) as known to one of skill in the art (i.e., Wan et al., Theor. Appl. Genet., 81: 205-211, 1991). Enough medium and chromosome doubling agent is added to the Petri dish to keep the callus support moist, but not so much that it covers the callus. The callus is then incubated at 28° C. for 3 days in the dark.
After the co-cultivation, the callus pieces were transferred onto two pieces of 2cm^2×1 mm thick 100% acrylic felt with approximately 25 mL liquid MSW57 (Table 3) supplemented with 750 mg/L carbenicillin and 100 mg/L paromomycin in petri dishes (100 mm×25 mm) with 16 calli per plate. The plates were kept in a dark culture room at 28° C. for approximately 7-10 days after which the old medium was removed by aspiration and fresh selection medium was added to the plates. After two 10-day selection periods, the old medium was removed by aspiration and replaced with fresh MSW57 medium containing 0.025% colchicine. The tissues remained on the colchicine medium for 3 days after which the colchicine medium was removed by aspiration and replaced with fresh selection medium containing 750 mg/L carbenicillin and 100 mg/L paromomycin.
After an additional two 10-day selection periods on selection medium, the cultures were moved to a culture room with 16-h light/8-h dark photoperiod at 28° C. and the liquid medium was replaced with liquid MS-6BA medium (Table 3) with 100 mg/L paromomycin and 500 mg/L carbenicillin. After 7 days, the callus pieces were transferred onto the second regeneration medium, a hormone-free MS-based medium (MSOD, Table 3) with 100 mg/L paromomycin in petri dishes (100 mm×25 mm). In another 2 weeks, the callus pieces that had shoots regenerated or were still alive were transferred onto the same hormone-free medium in Phytatrays for further growth. Regenerated plants (R0) when they reached to the top of Phytatrays and had one or more healthy roots were moved to soil in peat pots in a growth chamber. In 7 to 10 days, they were transplanted into 12-in pots after determining by flow cytometry that they were doubled haploids. Using this procedure, 23 transgenic events were produced from a total of 528 pieces of callus exposed to Agrobacterium and selection on paromomycin (Table 6).

[2] = system: immature embryos and callus from inbred X KHI/pehA crosses; experiment: Negative selection of pehA-containing immature embryos/callus on callus induction medium with glyceryl glyphosate; format: cell-based, corn; conditions: 10 to 14 days on callus induction medium; glyceryl glyphosate 0 to 5 mM
Excerpt: An efficient identification of corn haploid immature embryos, and callus derived from them, can be achieved by using the negative selectable marker gene pehA (phosphonate monoesterase). Cells that express the pehA gene convert the non-toxic glycerol glyphosate to toxic glyphosate and subsequently die. It is understood, however, that other negative selectable marker genes such as cytosine deaminase (which converts 5-fluorocytosine to 5-fluorouracil, which is toxic to cell growth [Plant Cell Reports 2001; 20:738-743]) may also be used equally effectively.
Inbred lines selected for the production of haploid immature embryos or callus can be pollinated with KHI that has been transformed with, and is homozygous for, the selectable marker gene pehA. After culturing on media containing glyceryl glyphosate, diploid (pehA containing) explants fail to grow, whereas maternal haploid explants produce callus typical of the maternal inbred.
Inbred lines selected for the production of haploid immature embryos or callus were pollinated with KHI that had been transformed with, and was homozygous for, the selectable marker gene pehA. The resulting ears were harvested when their embryos were 1.25 to 2.25 mm in size. Immature embryos were plated on suitable culture media to induce the desired type of callus. […]

Structure (SMILES) | doubling chromosomes of haploid callus ([1]; corn line D haploid callus, MSW57 medium with 0.025% colchicine) | Diploid plants ([1]; haploid callus line S33-B2) [%] | Haploid plants ([1]; haploid callus line S33-B2) [%] | Diploid plants ([1]; haploid callus line S41-A1) [%] | Haploid plants ([1]; haploid callus line S41-A1) [%] | Diploid plants ([1]; haploid callus line S42-B4) [%] | Haploid plants ([1]; haploid callus line S42-B4) [%] | Tetraploid plants ([1]; haploid callus line S42-B4) [%] | Diploid plants ([1]; haploid callus line S43-B1) [%] | Haploid plants ([1]; haploid callus line S43-B1) [%] | Tetraploid plants ([1]; haploid callus line S43-B1) [%] | Diploid plants ([1]; haploid callus line S49-B1) [%] | Haploid plants ([1]; haploid callus line S55-B1) [%] | Tetraploid plants ([1]; haploid callus line S55-B1) [%] | growth of diploid (pehA containing) immature embryos [2] | growth of maternal haploid immature embryos [2]
COc1cc2c(c(OC)c1OC)-c1ccc(OC)c(=O)cc1[C@@H](NC(C)=O)CC2 [colchicine] | effective in doubling chromosomes | 67 | 33 | 50 | 50 | 33 | 33 | 33 | 50 | 17 | 33 | 100 | 33 | 67 | – | –
O=C(O)CNCP(=O)(O)OCC(O)CO (stereo not shown) [glyceryl glyphosate] | – | – | – | – | – | – | – | – | – | – | – | – | – | – | failed to grow | produced callus typical of maternal inbred

— US20040210959A1, “A Novel Method for Production of Transformed Dihaploid Corn Plants” (MONSANTO TECHNOLOGY LLC, priority 2003, published 2004)
